{"source": "patent US10538742B2", "about": "“Methods and means related to cancer stem cells” (Cambridge Enterprise Limited, priority 2004, dated 2020)", "key": {"MCF-7 cells": {"system": "MCF-7 cells", "test": "Treatment of MCF-7 cells with gamma secretase inhibitor, SP quantitated", "assay_type": "cell-based, human", "details": "10 uM reserpine during SP analysis", "method": "FIG. 10A-10D illustrates the results of a screen for anti-cancer stem cell activity using the MCF-7 cancer cell line. MCF-7 cells were incubated with 1 uM gamma secretase inhibitor (Calbiochem, San Diego, catalog number 565750) for 7 days (B, D). Control cells were cultured without a gamma secretase inhibitor (A, C). Following drug treatment, cells were washed, and then the SP was analyzed as described herein, in the presence (C, D) or absence (A, B) of 10 uM reserpine. The percentage of SP cells in the culture is given for each experimental condition.\nMCF-7 cells were cultured in serum-containing media, as described above. Cells were harvested from the cultures, washed, and resuspended in gamma secretase inhibitor I. Gamma secretase inhibitor I was purchased from Calbiochem™ (San Diego, Calif.; Catalog number 565750). The gamma secretase inhibitor was added to the cultures at a final concentration of 1 uM. Cells were treated for 7 days, and the SP was quantitated as described.\nThe invention includes methods for evaluating compounds for anti-cancer stem cell activity by monitoring the SP cell population of a cancer cell line. In this experiment, MCF-7 cells were treated with a gamma secretase inhibitor, as described above. […] Therefore, gamma secretase inhibitors could affect cancer stem cells expressing the Notch protein. […]"}, "B104 neuroblastoma cells": {"system": "B104 neuroblastoma cells", "test": "SP analysis by Hoechst 33342 flow cytometry, B104 neuroblastoma cells", "assay_type": "cell-based, rat", "details": "50 μM verapamil during Hoechst 33342 labeling", "method": "(§1) To identify and isolate the SP cells in the cancer cell lines, the lines were cultured as described above, in either FCS or serum-free culture medium with bFGF, PDGF, or both. The cells were removed from the culture dish with trypsin and EDTA GIBCO BRL), washed, suspended at 10^6 cells per ml in DMEM containing 2% FCS (staining medium), and preincubated in 1.5-ml Eppendorf tube at 37° C. for 10 min. The cells were then labeled in the same medium at 37° C. for 90 min with 2.5 μg/ml Hoechst 33342 dye (Molecular Probes), either alone or in combination with 50 μM verapamil (Sigma), which is an inhibitor of some (verapamil-sensitive) ABC transporters (Goodell, M. A. (1996) J. Exp. Med. 183 1797-1806.). Finally, the cells were counterstained with 1 μg/ml propidium iodide to label dead cells. Then, 3-5×10^4 cells were analyzed in a FACSVantage fluorescence-activated cell sorter (Becton Dickinson) by using dual-wavelength analysis (blue, 424-444 nm; red, 675 nm) after excitation with 350-nm UV light. Propidium iodide-positive dead cells (15%) were excluded from the analysis. In the case of the C6 cell line, the SP cells or non-SP cells were sorted and cultured in serum-free culture medium with bFGF and PDGF.\n(§2) They were then analyzed by flow cytometry. […] No SP cells were detected in the two human osteosarcoma lines (U-20S and SaOS-2)."}, "HeLa carcinoma cells": {"system": "HeLa carcinoma cells", "test": "SP analysis by Hoechst 33342 flow cytometry, HeLa carcinoma cells", "assay_type": "cell-based, human", "details": "50 μM verapamil during Hoechst 33342 labeling", "method": "as §1, §2"}, "C6 glioma cells": {"system": "C6 glioma cells", "test": "SP analysis by Hoechst 33342 flow cytometry, C6 glioma cells", "assay_type": "cell-based, rat", "details": "50 μM verapamil during Hoechst 33342 labeling", "method": "as §1, §2"}, "MCF7 breast cancer cells": {"system": "MCF7 breast cancer cells", "test": "SP analysis by Hoechst 33342 flow cytometry, MCF7 breast cancer cells", "assay_type": "cell-based, human", "details": "50 μM verapamil during Hoechst 33342 labeling", "method": "as §1, §2"}, "MCF7 cells": {"system": "MCF7 cells", "test": "MCF7 SP cell expansion in serum-free medium with growth factors", "assay_type": "cell-based, human", "details": "growth factor 10 ng/ml, 7 days, in FCS less than 0.8%", "method": "The cells were cultured in FCS (A) or serum-free medium with bFGF (B), EGF (C), or both (D) for 7 days and were analyzed by flow cytometry. The SP is outlined and shown as a % of the total cell population.\n(§3) The cells were cultured in DMEM, supplemented with 10% FCS, 100 units/ml penicillin G, and 100 μg/ml streptomycin (GIBCO). In some experiments, C6 cells were cultured in serum-free DMEM containing 10 μg/ml bovine insulin, 100 μg/ml human transferrin, 100 μg/ml BSA, 60 ng/ml progesterone, 16 μg/ml putrescine, 40 ng/ml sodium selenite, 63 μg/ml N-acetylcysteine, 5 μM forskolin, 50 units/ml penicillin, and 50 μg/ml streptomycin (GIBCO), as well as one or both of 10 ng/ml bFGF and 10 ng/ml PDGF, or one or both of bFGF (10 ng/ml) and EGF (10 ng/ml).\nMCF7 Cell Expansion MCF7 cells were cultured in 10% FCS (FIG. 7A) or in serum-free culture medium with bFGF (FIG. 7B), EGF (FIG. 7C), or both (FIG. 7D) for 7 days. […] Cells were stained with Hoechst dye and analyzed by flow cytometry. When cultured in FCS, less than 0.8% of the cells are SP cells. By contrast, when cultured in serum-free medium with bFGF, EGF or both, 5.1%, 3.5%, or 6.2% of the cells, respectively, are SP cells."}, "C6 cells": {"system": "C6 cells", "test": "C6 SP cell expansion in serum-free medium with bFGF and PDGF", "assay_type": "cell-based, rat", "details": "10 ng/ml growth factor, up to 3 weeks", "method": "as §3\nTo identify and isolate the SP cells in the cancer cell lines, the lines were cultured as described above, in either FCS or serum-free culture medium with bFGF, PDGF, or both. […] Then, 3-5×10^4 cells were analyzed in a FACSVantage fluorescence-activated cell sorter (Becton Dickinson) by using dual-wavelength analysis (blue, 424-444 nm; red, 675 nm) after excitation with 350-nm UV light. […]\nThe cells were stained with Hoechst 33342 and analyzed by flow cytometry. […]\nTo investigate the individual roles of PDGF and bFGF in expanding C6 SP cells, C6 cells were cultured in either bFGF or PDGF for 2 weeks and then in bFGF plus PDGF for an additional 2 weeks. The cells were then stained with Hoechst 33342 and analyzed by flow cytometry. […]"}}}
{"compound": "COC(=O)[C@H]1[C@H]2C[C@@H]3c4[nH]c5cc(OC)ccc5c4CCN3C[C@H]2C[C@@H](OC(=O)c2cc(OC)c(OC)c(OC)c2)[C@@H]1OC", "note": "[reserpine]", "values": [{"measurement": "SP in the presence of reserpine", "setting": "MCF-7 cells", "result": "no SP is visible"}]}
{"compound": "COc1ccc(CCN(C)CCCC(C#N)(c2ccc(OC)c(OC)c2)C(C)C)cc1OC", "note": "(stereo not drawn) [verapamil]", "values": [{"measurement": "SP (side population) on treatment with verapamil", "setting": "B104 neuroblastoma cells", "result": "decreased greatly"}, {"measurement": "SP (side population) on treatment with verapamil", "setting": "HeLa carcinoma cells", "result": "decreased greatly"}, {"measurement": "SP (side population) on treatment with verapamil", "setting": "C6 glioma cells", "result": "decreased greatly"}, {"measurement": "SP (side population) on treatment with verapamil", "setting": "MCF7 breast cancer cells", "result": "decreased greatly"}]}
{"compound": "EGF: recombinant cytokine added to serum-free medium at 10 ng/ml", "values": [{"measurement": "% of the cells that are SP cells", "setting": "MCF7 cells", "result": 3.5, "unit": "%"}]}
{"compound": "PDGF", "values": [{"measurement": "SP cells maintained or detected in culture", "setting": "C6 cells", "result": "few SP cells could be detected"}]}
{"compound": "bFGF: basic fibroblast growth factor, recombinant cytokine purchased from PeproTech", "values": [{"measurement": "% of the cells that are SP cells", "setting": "MCF7 cells", "result": 5.1, "unit": "%"}, {"measurement": "SP cells maintained or detected in culture", "setting": "C6 cells", "result": "few SP cells could be detected"}]}
